Key:
[1] = system: orchidectomized rats (ORX); assay: Compression test of the distal femur (Example 4); assay type: in vivo, rat; conditions: for Elastic Modulus / Energy / Maximum Load / Stiffness / Toughness / Ultimate Strength: distal femur
Experimental: Eight month-old male Sprague Dawley rats were either sham-operated (SHAM) or orchidectomized (ORX). Treatment began immediately following surgery. The treatment groups were as described in Table 5. Bone strength was evaluated using a compression test at the vertebral body, a three point bending test at the femoral shaft, a compression test at the distal femur and a cantilever compression test of the femoral neck. Prior to mechanical testing, all samples were thawed in cold saline and carefully cleaned of any remaining adherent soft tissue.

Osteocalcin in rat serum = assay: Osteocalcin (OC) in rat serum (Example 4); assay type: in vivo; conditions: Orx rats; for OC (osteocalcin) levels in serum: 10 days; for inhibitory effect on OC levels: 28 days
Experimental: This assay is specific for rat Osteocalcin and both carboxylated and decarboxylated rat Osteocalcin are recognized. A monoclonal antibody against the N-terminal region of Osteocalcin is bound to the polystyrene wells. The assay was performed in duplicates. 100 ul of standards, control and 1 to 20 diluted samples were added to appropriate wells and incubated overnight at 4 C. After washing the strips, 100 ul of Goat polyclonal antibody of high specificity for C-terminus of rat Osteocalcin was added and incubated 60 min at 37 C. After washing, 100 ul of Donkey anti-goat IgG peroxidase conjugated antibody was added and incubated 60 min at 22 C. The wells were washed and a mix of TMB and peroxide solution was added and incubated 30 min at 22 C in the dark. The reaction was stopped, and the absorbance was measured at 450 nm. A standard curve was constructed using 4-parametric logistic curve fit. Sample osteocalcin concentrations were determined by interpolation. Eight month-old male Sprague Dawley rats were either sham-operated (SHAM) or orchidectomized (ORX). Treatment began immediately following surgery. The treatment groups were as described in Table 5.

[2] = system: men with high-grade prostatic intraepithelial neoplasia (HGPIN); assay: Phase IIa clinical trial: bone turnover markers (serum calcium, alkaline phosphatase) in men treated with Toremifene; assay type: in vivo, human; conditions: 18 men with HGPIN, 60 mg/d Toremifene
Experimental: In a Phase IIa clinical trial to determine whether Toremifene has chemopreventive activity against prostate cancer, 18 men with high-grade prostatic intraepithelial neoplasia (HGPIN) were treated with 60 mg/d of Toremifene for 4 months.

[3] = Week 12, 5 mg/kg/d of Toremifene, Estradiol 0.2 mg/kg/d
[4] = week 6, mean, Toremifene 5 mg/kg/d, Estradiol 0.2 mg/kg/d
[5] = week 12, mean, Toremifene 5 mg/kg/d, Estradiol 0.2 mg/kg/d
[6] = week 6, mean, Toremifene 10 mg/kg/d
[7] = week 12, mean, Toremifene 10 mg/kg/d

Row | SMILES | bone strength, compression test of the distal femur ([1]; Week 6) | bone strength, compression test of the distal femur [1, 3] | Elastic Modulus [1, 4] [MPa] | Energy [1, 4] [mJ] | Maximum Load [1, 4] [N] | Stiffness [1, 4] [N/mm] | Toughness [1, 4] [MJ/m^3] | Ultimate Strength [1, 4] [N/mm^2] | Elastic Modulus [1, 5] [MPa] | Energy [1, 5] [mJ] | Maximum Load [1, 5] [N] | Stiffness [1, 5] [N/mm] | Toughness [1, 5] [MJ/m^3] | Ultimate Strength [1, 5] [N/mm^2] | OC (osteocalcin) levels in serum (Osteocalcin in rat serum; E 0.2 mg/kg/d, 5 mg-Tor) | also measured
1 | C[C@]12CC[C@@H]3c4ccc(O)cc4CC[C@H]3[C@@H]1CC[C@@H]2O [17-β-Estradiol] | highest values in all groups | highest values at Week 12 | 579.48 | 66.00 | 561.45 | 4758.55 | 0.91 | 22.89 | 473.02 | 55.94 | 487.94 | 3714.71 | 0.78 | 20.66 | reversed OC levels to slightly below that of Sham group | –
2 | CN(C)CCOc1ccc(/C(=C(/CCCl)c2ccccc2)c2ccccc2)cc1 [Toremifene] | bone strength similar to that of Sham-operated animals | maintained similar strength | 535.08 | 56.00 | 469.64 | 4058.07 | 0.81 | 20.54 | 379.32 | 53.13 | 458.79 | 3175.07 | 0.69 | 18.09 | reversed OC levels to slightly below that of Sham group | alkaline phosphatase, change compared to baseline (mean) ([2]; Day 60, p<0.001): −18.7; alkaline phosphatase, change compared to baseline (mean) ([2]; Day 120, p<0.001): −21.0; serum calcium, reduction from baseline (mean) ([2]; Day 120, p=0.005): −0.12; bone strength, compression test of the distal femur ([1]; Week 12, 10 mg/kg/d Toremifene): small decrease in strength; Elastic Modulus [1, 6]: 440.77 MPa; Energy [1, 6]: 66.19 mJ; Maximum Load [1, 6]: 447.29 N; Stiffness [1, 6]: 3549.70 N/mm; Toughness [1, 6]: 0.91 MJ/m^3; Ultimate Strength [1, 6]: 18.47 N/mm^2; Elastic Modulus [1, 7]: 418.05 MPa; Energy [1, 7]: 45.57 mJ; Maximum Load [1, 7]: 411.45 N; Stiffness [1, 7]: 3366.63 N/mm; Toughness [1, 7]: 0.62 MJ/m^3; Ultimate Strength [1, 7]: 16.81 N/mm^2; OC (osteocalcin) levels in serum (Osteocalcin in rat serum; 10 mg-Tor): reversed OC levels to slightly below that of Sham group; inhibitory effect on OC levels (Osteocalcin in rat serum; continued at 42 days, 10 mg-Tor): more pronounced than both 5 mg Tor and E; inhibitory effect on OC levels (Osteocalcin in rat serum; 5 mg-Tor): same as E

— patent US7524866B2, “Prevention and treatment of androgen—deprivation induced osteoporosis” (GTx, Inc., priority 2001, dated 2009)
